Laboratory results from patent publication EP0325762B1, “Macrocyclic chelating agents and chelates thereof” (BRACCO S.p.A., priority 1987, dated 1989).

Assays:
[1] = Determination of relaxivity (longitudinal R1 by Inversion Recovery, transverse R2 by Carr-Purcell-Meiboom-Gill sequence, MINISPEC PC 120 BRUKER); type: physicochemical; details: 20 MHz (proton), 39°C, pH 7.3, 0 to 5 mM, water; for R₁: longitudinal relaxivity; for R₂: transverse relaxivity
Experimental: Determination of the relaxivity of the compounds of the present invention.
Longitudinal relaxivity (R₁) measurements were calculated using the "Inversion Recovery" sequence with an 8 point minimum and a 3 parameter fit, according to the program provided for the MINISPEC […] BRUKER instrument, by which measurements were taken.
Transverse relaxivity (R₂) measurements were calculated using the sequence of Carr, Purcell, Meiboom and Gill, according to the program provided for the MINISPEC 120 BRUKER instrument, by means of which measurements were taken, adjusting the apparatus in such a way as to observe the decay of the signal to about 1/3 of the starting value, with a score number higher or equal to 10 and a 2 parameter fit.
In table I, R₁ and R ₂ values calculated for compounds A and B in comparison with Gd/DTPA neutralized with N-methylglucamine, are reported as non-limiting examples.

[2] = test system: mouse; test: Determination of LD50 in the mouse by intravenous administration; type: in vivo; details: male and female mice, Strain: Crl:CDl(ICR)BR, range in parentheses
Excerpt: Determination of LD₅₀ in the mouse by intravenous administration of the compounds of the present invention. In table II are reported, as non-limiting examples, the LD₅₀ values for compounds A and B of the present invention, in comparison with GdCl₃ and with Gd/DTPA neutralized with N-methylglucamine.

SMILES	R₁ ([1]; solvent 0.154 M NaCl (0.9%)) [mM/s]	R₂ ([1]; solvent 0.154 M NaCl (0.9%)) [mM/s]	LD₅₀ in the mouse* in mmol/kg - intravenous [2]	R₁ ([1]; solvent 0.154 M (0.9%)) [mM/s]	R₂ ([1]; solvent 0.154 M (0.9%)) [mM/s]
C[NH2+]C[C@H](O)[C@@H](O)[C@H](O)[C@H](O)CO.O=C([O-])CN1CCN(CC(=O)[O-])CCN(C(COCc2ccccc2)C(=O)[O-])CCN(CC(=O)[O-])CC1.[Gd+3] (stereo not shown) [A, Gd^(3+)/2-[1,4,7,10-tetraaza-4,7,10-tri(carboxymethyl)-cyclododecane-1-yl]-3-benzyloxypropionic acid, neutralized with N-methylglucamine]	4.15 ± 0.01	5.67 ± 0.02	8.8 (7.79 - 9.94) mmol/kg	–	–
C[NH2+]C[C@H](O)[C@@H](O)[C@H](O)[C@H](O)CO.O=C([O-])CN1CCN(CC(=O)[O-])CCN(C(CO)C(=O)[O-])CCN(CC(=O)[O-])CC1.[Gd+3] (stereo not shown) [B, Gd^(3+)/2-[1,4,7,10-tetraaza-4,7,10-tri(carboxymethyl)-cyclododecane-1-yl]-3-hydroxypropionic acid, neutralized with N-methylglucamine]	3.72 ± 0.01	5.06 ± 0.01	13.1 (12.2 - 14.1) mmol/kg	–	–
CNC[C@H](O)[C@@H](O)[C@H](O)[C@H](O)CO.CNC[C@H](O)[C@@H](O)[C@H](O)[C@H](O)CO.O=C([O-])CN(CCN(CC(=O)[O-])CC(=O)O)CCN(CC(=O)[O-])CC(=O)O.[Gd+3] [Gd/DTPA, reference compound]	–	–	4.8 (4.47 - 5.16) mmol/kg	4.08 ± 0.01	5.15 ± 0.02
[Cl][Gd]([Cl])[Cl] [GdCl₃, reference compound]	–	–	0.28 (0.24 - 0.32) mmol/kg	–	–
